Results reported in patent US20260091011A1, “HYDROALCOHOLIC SINGLE PHASE GEL COMPOSITIONS FOR TOPICAL DELIVERY OF DICLOFENAC” (HALEON CH SARL, priority 2022, published 2026).

Assay: Cumulative skin permeation study in a 3 ml permeation cell (Example 2)
Format: in vitro ADME, human
Details: 2% w/w diclofenac sodium hydroalcoholic gels
Procedure: In a cumulative skin permeation study in a 3 ml permeation cell, cumulative permeation through a skin sample from a human donor was studied. Five different compositions were tested in six replicates. Cumulative permeation was measured at 4 hours (hrs) and at 24 hrs after application of a dose. However, cumulative permeation at 4 hrs was below the measurement threshold in this experiment and thus is not reported for Example 2. All formulations were applied in a dose of 6 microlitres onto skin sample of a defined surface area. The following formulations were studied: […]

Substance | effect of non-ionic emulsifier on cumulative permeation of diclofenac at 24 hrs
Polysorbate 20 [Kolliphor PS 20] | permeation retarding effect
macrogol cetostearyl ether 20 [Kolliphor CS 20] | more pronounced
